Reference: patent US5063245A, “Corticotropin-releasing factor antagonism compounds” (Nova Pharmaceutical Corporation, priority 1990, dated 1991)
Where a name gives a salt, the structure may show the parent alone. Read-outs that look alike come from different tables or passages of the source.

How the values were obtained:
CRF receptor = target: T1, CRF receptor (Rattus norvegicus, UniProt P35353); experiment: In vitro receptor binding: inhibition of specific binding of [125I]tyrosine-oCRF to rat cerebral cortex membranes; conditions: [125I]Tyr-oCRF 50-100 pM, 2 hours at room temperature
T1 construct: the cerebral cortex was removed and the tissue homogenized; from tissue; host or cells: cerebral cortex membranes of male Sprague-Dawley rats
T1 sequence (P35353 24-415): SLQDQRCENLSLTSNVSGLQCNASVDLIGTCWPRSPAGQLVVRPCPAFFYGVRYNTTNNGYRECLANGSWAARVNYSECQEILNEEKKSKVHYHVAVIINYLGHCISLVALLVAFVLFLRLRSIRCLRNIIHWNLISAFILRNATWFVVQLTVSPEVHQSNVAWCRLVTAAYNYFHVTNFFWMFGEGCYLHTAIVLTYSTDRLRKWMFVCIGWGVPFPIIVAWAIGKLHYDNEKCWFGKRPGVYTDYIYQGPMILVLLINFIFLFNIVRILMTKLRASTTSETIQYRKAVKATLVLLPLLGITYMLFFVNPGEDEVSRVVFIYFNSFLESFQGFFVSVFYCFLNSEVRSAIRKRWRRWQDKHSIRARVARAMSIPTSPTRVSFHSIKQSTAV
Experimental: The potency of the compounds of the invention as inhibitors of the specific binding of radiolabeled CRF to rat cerebral cortex membranes was examined using a standard in vitro radioligand binding technique. […] The homogenate was centrifuged at 48,000×g for 10 minutes at 4° C. The supernatant was removed, the tissue pellet suspended in the original volume of fresh homogenization buffer using a Polytron and centrifuged as before. […] Incubation buffer consists of 50 mM Hepes (pH 7.0 at 22° C.) containing 10 mM MgCl2, 2 mM EGTA, 0.1 mM bacitracin, 100 KIU (kallikrein inhibitor units)/mL aprotinin and 0.1% BSA (bovine serum albumin). […] Nonspecific binding was determined in the presence of 1 μM oCRF. The binding reaction was allowed to proceed for 2 hours at room temperature. Bound radioligand was separated from the incubation medium by centrifugation in a Beckman microfuge for 5 minutes at 12,000×g. The supernatant was aspirated and the resulting pellet was washed with 1 mL of cold phosphate buffered saline (pH 7.2) containing 0.01% of Triton X-100.
Tyr-oCRF to rat cortical membranes was determined on at least three separate occasions using 8-10 concentrations of each compound and utilizing triplicate incubations. The IC50 and apparent Hill coefficient for each compound were calculated using a computer-assisted log-logit analysis.

[1] = target: CRF-stimulated adenylate cyclase; experiment: Inhibition of CRF-stimulated adenylate cyclase activity (rat frontal cortex); format: biochemical; conditions: Table I, Formula I; 1 μM oCRF; 37° C., 10 minutes
Text: CRF antagonist activity is established by the ability of the compounds to antagonize CRF-stimulated adenylate cyclase activity, it having been established that CRF receptors are coupled to a guanine nucleotide regulatory protein that activates adenylate cyclase [G. Aguilera et al., Neuroendocrinology, 43, 79 (1986); G. Battaglia et al., Synapse, 1, 572 (1987)].
Male Sprague-Dawley rats (175-250 g) were sacrificed by decapitation, the frontal cortex was dissected and homogenized in 30 volumes (w/v) of ice-cold buffer (50 mM Tris HCl, 10 mM MgCl2, 2 mM EGTA; pH 7.2 at 22° C.). The homogenate was centrifuged at 40,000×g for 3 minutes (4° C.), the supernatant discarded and the pellet resuspended in original volume of fresh homogenization buffer. Following centrifugation at 40,000×g for 30 minutes, the resulting pellet was suspended to a tissue concentration of 20 mg original wet weight of tissue per mL (approximately 40-60 μg protein/mL). For determination of basal adenylate cyclase activity, assays are carried out at 37° C. for 10 minutes in 250 μL of buffer containing 100 mM Tris HCl, 10 mM MgCl2, 0.4 mM EGTA, 0.1% BSA, 1 mM isobutylmethylxanthine (IBMX), 3 units/tube phosphocreatine kinase, 5 mM creatine phosphate, 100 μM guanosine. Maximal stimulation of adenylate cyclase activity was accomplished by the addition of 10^-6 M oCRF. Stimulated enzyme activity generally represented a 75-95% increase over basal levels. Reactions were initiated by the addition of tissue and terminated by the addition of 150 μL of 50 mM Tris HCl, 45 mM ATP, 2% sodium dodecyl sulfate (SDS), and [^3 H] cAMP (approximately 40,000 dpm). The [^3 H]cAMP was added to each assay tube to monitor recovery of cAMP during subsequent chromatography steps. Separation of [^32 P]cAMP from [^32 P]ATP was accomplished by sequential elution over Dowex and alumina columns. The eluate (4 mL) was collected in 20 mL scintillation vials to which 8 mL of Beckman EP fluor was added. Vials were shaken for 30 minutes prior to measuring ^3 H and ^32 P by scintillation counting. All data were fed directly from the liquid scintillation counter via RS232 port to a VAX 8300 computer. Individual data points were expressed as pmoles of cAMP formed/10 minutes/mg protein. Protein content of tissue samples was measured using the BioRad method with bovine serum albumin serving as the standard.
Determination of antagonist activity was accomplished by addition of at least six concentrations of the compound (10^-8 -10^-4 M), evaluated in triplicate, in the presence of a maximally stimulating concentration of oCRF (1 μM). IC50 values were derived from a log-logit transformation of the data on a Vax 8300.

[2] = Inhibition of CRF Binding, Rat Cerebral Cortex Membrane, IC50, Table I, Formula I
[3] = Table I, Formula I, read-out: Inhibition of CRF Binding, Rat Cerebral Cortex Membrane, IC50
[4] = Table II, Formula II (disulfides), read-out: Inhibition of CRF Binding, Rat Cerebral Cortex Membrane, IC50

Row | IC50 [1] | IC50 (CRF receptor; [3]) | IC50 (CRF receptor; [4]) | Structure (SMILES) | IC50 (CRF receptor; [2])
1 |  | 3.8 µM |  | Cc1c(SC#N)c(=O)n(-c2ccc3ccccc3c2)n1C [Formula I: 2-Naphthyl, CH3, CH3, SCN, 2,3-dimethyl-1-naphthyl-5-oxo-3-pyrazolin-4-yl thiocyanate] | 
2 | 6.9 µM | 15.5 µM |  | Cc1c(SC#N)c(=O)n(-c2cccc(C#N)c2)n1C [Formula I: 3-CNPh, CH3, CH3, SCN, 2,3-dimethyl-5-oxo-1-(3-cyanophenyl)-3-pyrazolin-4-yl thiocyanate] | 
3 | 6.9 µM | 7.4 µM |  | CCn1c(C)c(SC#N)c(=O)n1-c1cccc(Cl)c1 [Formula I: 3-ClPh, C2 H5, CH3, SCN, 2-ethyl-3-methyl-5-oxo-1-(3-chlorophenyl)-3-pyrazolin-4-yl thiocyanate] | 
4 | 9.1 µM | 8.6 µM |  | Cc1ccc(-n2c(=O)c(SC#N)c(C)n2C)cc1 [Formula I: 4-CH3 Ph, CH3, CH3, SCN, 2,3-dimethyl-5-oxo-1-(4-methylphenyl)-3-pyrazolin-4-yl thiocyanate] | 
5 | 11.4 µM | 17 µM |  | CCn1c(C)c(SC#N)c(=O)n1-c1ccc(S(C)(=O)=O)cc1 [Formula I: 4-CH3 SO2 Ph, C2 H5, CH3, SCN, 2-ethyl-3-methyl-5-oxo-1-(4-methylsulfonylphenyl)-3-pyrazolin-4-yl thiocyanate] | 
6 |  | 6.5 µM |  | Cc1c(SC#N)c(=O)n(-c2ccc(I)cc2)n1C [Formula I: 4-IPh, CH3, CH3, SCN, 2,3-dimethyl-5-oxo-1-(4-iodophenyl)-3-pyrazolin-4-yl thiocyanate] | 
7 | 2 µM | 5.7 µM |  | CCn1c(C)c(SC#N)c(=O)n1-c1ccc([N+](=O)[O-])cc1 [Formula I: 4-NO2 Ph, C2 H5, CH3, SCN, 2-ethyl-3-methyl-5-oxo-1-(4-nitrophenyl)-3-pyrazolin-4-yl thiocyanate] | 
8 | 11.9 µM | 9.3 µM |  | CCc1c(SC#N)c(=O)n(-c2ccc(OC)cc2)n1C [Formula I: 4-OMePh, CH3, C2 H5, SCN] | 
9 | 45 µM | 67 µM |  | CCc1c(SC#N)c(=O)n(CC)n1CC [Formula I: C2 H5, C2 H5, C2 H5, SCN, 1,2,3-triethyl-5-oxo-3-pyrazolin-4-yl thiocyanate] | 
10 | 35.2 µM | 15 µM |  | Cc1c(SC#N)c(=O)n(C2CCCCC2)n1C [Formula I: C6 H11, CH3, CH3, SCN, 1-cyclohexyl-2,3-dimethyl-5-oxo-3-pyrazolin-4-yl thiocyanate] | 
11 | 39.9 µM | 17 µM |  | CCn1c(C)c(SC#N)c(=O)n1Cc1ccccc1 [Formula I: CH2 Ph, CH2 CH3, CH3, SCN, 1-benzyl-2-ethyl-3-methyl-5-oxo-3-pyrazolin-4-yl thiocyanate] | 
12 | 69.3 µM | 32 µM |  | Cc1c(SC#N)c(=O)[nH]n1-c1ccc([N+](=O)[O-])cc1 [Formula I: H, 4-NO2 Ph, CH3, SCN] | 
13 | 6.5 µM | 12.2 µM |  | CCn1c(C)c(SC#N)c(=O)n1-c1ccccc1 [Formula I: Ph, C2 H5, CH3, SCN, 2-ethyl-3-methyl-5-oxo-1-phenyl-3-pyrazolin-4-yl thiocyanate] | 
14 | 3 µM | 6.5 µM |  | CC(=O)Nc1cccc(-c2c(SC#N)c(=O)n(-c3ccccc3)n2C)c1 [Formula I: Ph, CH3,3-AcNHPh, SCN, 2-methyl-5-oxo-1-phenyl-3-(3-acetamidophenyl)-3-pyrazolin-4-yl thiocyanate] | 
15 | 31.7 µM | 19.1 µM |  | CCc1c(SC#N)c(=O)n(-c2ccccc2)n1C [Formula I: Ph, CH3, CH2 CH3, SCN, 3-ethyl-2-methyl-5-oxo-1-phenyl-3-pyrazolin-4-yl thiocyanate] | 
16 | 2.9 µM | 13.7 µM |  | CC(=O)Sc1c(C)n(C)n(-c2ccccc2)c1=O [Formula I: Ph, CH3, CH3, SAc, 2,3-dimethyl-5-oxo-1-phenyl-3-pyrazolin-4-yl thioacetate] | 
17 |  | 39.8 µM |  | Cn1c(CN2CCOCC2)c(SC#N)c(=O)n1-c1ccccc1 [Formula I: Ph, CH3, MorCH2, SCN, 2-methyl-3-mopholinomethyl-5-oxo-1-phenyl-3-pyrazolin-4-yl thiocyanate] | 
18 |  |  | 3.3 µM | Cc1c(SSc2c(C)n(C)n(-c3ccc4ccccc4c3)c2=O)c(=O)n(-c2ccc3ccccc3c2)n1C [Formula II: 2-Naphthyl, CH3, CH3, HCl, 2,3-dimethyl-1-naphthyl-5-oxo-3-pyrazolin-4-yl disulfide] | 
19 |  |  | 5.1 µM | Cc1c(SSc2c(C)n(C)n(-c3ccc(I)cc3)c2=O)c(=O)n(-c2ccc(I)cc2)n1C [Formula II: 4-IPh, CH3, CH3, 2,3-dimethyl-5-oxo-1-(4-iodophenyl)-3-pyrazolin-4-yl disulfide] | 
20 |  |  | 4.3 µM | Cc1c(SSc2c(C)n(C)n(-c3cccc(Cl)n3)c2=O)c(=O)n(-c2cccc(Cl)n2)n1C [Formula II: 6-Cl-2-Pyr, CH3, CH3, 2,3-dimethyl-5-oxo-1-(6-chloro-2-pyridyl)-3-pyrazolin-4-yl disulfide] | 
21 |  |  | 8.2 µM | Cn1c(CN2CCOCC2)c(SSc2c(CN3CCOCC3)n(C)n(-c3ccccc3)c2=O)c(=O)n1-c1ccccc1 [Formula II: Ph, CH3, MorCH2, 2HCl, 2-methyl-3-morpholinylmethyl-5-oxo-1-phenyl-3-pyrazolin-4-yl disulfide] | 

Row | Structure (SMILES) | IC50 [1] | IC50 (CRF receptor; [3]) | IC50 (CRF receptor; [4]) | IC50 (CRF receptor; [2])
22 | Cc1c(SC#N)c(=O)n(C)n1Cc1ccccc1 [2-benzyl-1,3-dimethyl-5-oxo-3-pyrazolin-4-yl thiocyanate, hemifumarate] | 40.1 µM |  |  | 33.6 µM
23 | Cc1c(SC#N)c(=O)n(-c2c(Cl)cccc2Cl)n1C [Formula I: 2,6-Cl2 Ph, CH3, CH3, SCN, 2,3-dimethyl-5-oxo-1-(2,6-dichlorophenyl)-3-pyrazolin-4-yl thiocyanate] | 29.9 µM |  |  | 18.9 µM
24 | CCn1c(C)c(SC#N)c(=O)n1-c1ccc(Cl)c(Cl)c1 [Formula I: 3,4 Cl2 Ph, C2 H5, CH3, SCN, 2-ethyl-3-methyl-5-oxo-1-(3,4-dichlorophenyl)-3-pyrazolin-4-yl thiocyanate] | 1.4 µM |  |  | 4.9 µM
25 | CCn1c(C)c(SC#N)c(=O)n1CC [Formula I: C2 H5, C2 H5, CH3, SCN, 1,2-diethyl-3-methyl-5-oxo-3-pyrazolin-4-yl thiocyanate] | 29.4 µM |  |  | 111 µM
26 | CCCn1c(C)c(SC#N)c(=O)n1-c1ccccc1 [Formula I: Ph, (CH2)2 CH3, CH3, SCN, 3-methyl-5-oxo-1-phenyl-2-propyl-3-pyrazolin-4-yl thiocyanate] | 16.9 µM |  |  | 32 µM
